Drawing on publication PMC11219735, “Fluorescence lifetime multiplexing with fluorogen activating protein FAST variants” (Communications Biology, 2024), this text covers Kd for three compounds.

One may read the Kd as the equilibrium constant for the complex coming apart.

Test in all cases: spectrofluorometric titration of purified protein
Assay type in all cases: binding

Test [1] deals with T1, FAST-F62L (Fluorescence-Activating and Absorption-Shifting Tag) (Halorhodospira halophila, UniProt P16113, F62L/C69G/Y94W/T95M/F96I/D97P/Y98T/Q99S/M100R).
T1 construct: gene pyp

In test [2] the target is T2, FAST-P68K (Fluorescence-Activating and Absorption-Shifting Tag) (Halorhodospira halophila, UniProt P16113, P68K/C69G/Y94W/T95M/F96I/D97P/Y98T/Q99S/M100R).
T2 construct: gene pyp

The target in test [3] is T3, FAST-R52K (Fluorescence-Activating and Absorption-Shifting Tag) (Halorhodospira halophila, UniProt P16113, R52K/C69G/Y94W/T95M/F96I/D97P/Y98T/Q99S/M100R).
T3 construct: gene pyp

Test [4] addresses T4, FAST-P68T (Fluorescence-Activating and Absorption-Shifting Tag) (Halorhodospira halophila, UniProt P16113, P68T/C69G/Y94W/T95M/F96I/D97P/Y98T/Q99S/M100R).
T4 construct: gene pyp

T3 sequence (P16113 whole entry R52K/C69G/Y94W/T95M/F96I/D97P/Y98T/Q99S/M100R): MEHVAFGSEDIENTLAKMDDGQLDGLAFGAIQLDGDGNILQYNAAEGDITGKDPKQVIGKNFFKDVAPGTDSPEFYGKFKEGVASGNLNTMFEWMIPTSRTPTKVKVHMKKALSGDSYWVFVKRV
T2 sequence (P16113 whole entry P68K/C69G/Y94W/T95M/F96I/D97P/Y98T/Q99S/M100R): as the sequence (P16113 whole entry R52K/C69G/Y94W/T95M/F96I/D97P/Y98T/Q99S/M100R) above, with K52R, P68K counted along it
T1 sequence (P16113 whole entry F62L/C69G/Y94W/T95M/F96I/D97P/Y98T/Q99S/M100R): as the sequence (P16113 whole entry R52K/C69G/Y94W/T95M/F96I/D97P/Y98T/Q99S/M100R) above, with K52R, F62L counted along it
T4 sequence (P16113 whole entry P68T/C69G/Y94W/T95M/F96I/D97P/Y98T/Q99S/M100R): as the sequence (P16113 whole entry R52K/C69G/Y94W/T95M/F96I/D97P/Y98T/Q99S/M100R) above, with K52R, P68T counted along it

As to `COc1cc(/C=C2\SC(=S)NC2=O)c(OC)cc1O` [HBR-DOM2, (Z)-5-(4-hydroxy-2,5-dimethoxybenzylidene)-2-thioxothiazolidin-4-ones], the values for the Kd in test [1], in test [2] and in test [3] were 0.036 µM, 0.03 µM and 0.035 µM, respectively.

As for `Cc1cc(/C=C2\SC(=S)NC2=O)c(C)cc1O` [HBR-2,5-DM], the Kd in test [4] was 0.09 µM; in test [2], 0.084 µM; in test [3], 0.046 µM.

Take `COc1cc(/C=C2\N=C(C(F)(F)F)N(C)C2=O)c(OC)cc1O` [25DOM-HBI-2T, (Z)-5-(4-hydroxy-2,5-dimethoxybenzylidene)-3-methyl-2-(trifluoromethyl)-3,5-dihydro-4H-imidazol-4-one]: the figures for the dissociation constant (Kd) in test [2] and in test [3] were 0.34 µM and 0.44 µM, respectively.
